Experimental data published in patent US20220288057A1, “CONJOINT THERAPY FOR TREATING SEIZURE DISORDERS” (XENON PHARMACEUTICALS INC., priority 2021, published 2022).
Values joined by “and” are separate entries in the source; they are usually repeats but may differ in a detail not shown here. Equal entries are not always repeated. Where two headings read alike, the source gives them in different places.

Assays:
CF-1 mouse = assay: Clinical observations / behavioral signs in AC-MES studies; type: in vivo
Method: Any qualitative changes from normal behavior were recorded.
Five oral (PO) doses of Compound A were each tested in the AC-MES model. Thirty minutes after administration of Compound A at 1 mg/kg (n=8), 3 mg/kg (n=8), 5 mg/kg (n=16), 7.5 mg/kg (n=7), and 10 mg/kg (n=17) via oral gavage to male CF-1 mice (body weights 28.2 to 43.8 g), the mice underwent a 60 Hz corneal electrical stimulus (0.2 seconds duration, 40 mA). This stimulus elicited a tonic hindlimb extension in all vehicle-dosed animals. […] An observational neurological assessment (qualitative test) was also conducted at the time of testing as a tolerability screen. Terminal plasma and brain samples were collected from all animals to obtain the levels of Compound A concentration, and to understand the relationship between efficacy and drug concentration.
(§1) The Blinding and Randomization, Clinical Observations, AC-MES Assay, Sample Collection and Preparation, Plasma and Brain Samples Analysis, and Bioanalysis Procedures in Example 4 were identical to those used in Example 2.

[1] = tested on: AC-MES-induced tonic seizures in CF-1 mice; assay: Mouse AC-MES assay (60 Hz, 40 mA, 0.2 s); type: in vivo; conditions: for EC50: Compound A PO 0.5 h alone
Method: The efficacy of Compound A and its pharmacological interaction with Lacosamide was evaluated after oral dosing in the mouse maximal electroshock seizure (AC-MES) assay.
The objective of these studies was to characterize the dose-dependent anticonvulsant activity of Compound A and its pharmacological interaction with Lacosamide in the AC-MES assay in mice after a single oral administration of the compounds. The AC-MES assay is typically responsive to non-selective sodium channel blockers and potassium channel openers, and has been used as a translational animal model for partial onset seizures.
The anticonvulsant efficacy of Compound A and Lacosamide, and the effect of combining Compound A with Lacosamide were tested in the AC-MES assay in male CF-1 mice following a single PO dose. Plasma and brain samples were obtained to understand the relationship between drug concentration and efficacy.
AC-MES Assay: The MES test has been extensively used in the search for anticonvulsant substances (Piredda et al., Löscher et al., and White et al.). The MES test is considered a model for generalized tonic-clonic (GTC) seizures and provides an indication of a compound's ability to prevent seizure spread. In the AC-MES model, an electroshock of alternating current (60 Hz, 40 mA) was delivered for 0.2 seconds by corneal electrodes (HSE-HA Rodent Shocker, Harvard Apparatus, model no: 73-0105). CF-1 mice were dosed PO (according to Standard Operating Procedure (SOP) TECH-006) with vehicle or Compound A 0.5 hours before the electroshock assay Immediately prior to the electroshock stimulation, the animals' eyes were anesthetized with a topical application of 0.5% Alcaine solution (proparacaine hydrochloride, one drop per eye). Mice were then restrained, the corneal electrodes applied, and the shock administered. In naïve animals, the seizure is characterized by an initial generalized tonic seizure with hindlimb tonic extensor component. An animal is considered protected from MES-induced seizures upon abolition of the hindlimb tonic extensor component of the seizure and is then scored “0”. […] Mice were euthanized immediately after an initial seizure score assessment following the electroshock for plasma and brain collection.
Data Processing and Analysis: All statistics were calculated using GraphPad Prism version 8 software. Concentration response curves were generated using the Hill Langmuir equation:
Y=B+(T−B)×x^n/(IC50^n+x^n), Equation 1
where: • B=bottom, set as 0. • T=top, set as 1. • n=the Hill coefficient, constrained to less than zero. • IC50=concentration of a compound required for 50% inhibition in vitro.
All group data is expressed as mean. Between-group differences were analyzed using Kruskal-Wallis followed by Dunn's multiple comparison test.
Plasma and brain samples were obtained to understand the relationship between drug concentration and efficacy.
as §1
Sample concentration determination and Data Processing and Analysis in Example 4 was identical to Example 2.

[2] = Study 2A, Compound A 1 mg/kg PO, 0.5 h
[3] = Study 2A, Compound A 5 mg/kg PO, 0.5 h
[4] = Study 2A, Compound A 10 mg/kg PO, 0.5 h
[5] = Study 2B, Compound A 5 mg/kg PO, 0.5 h
[6] = Study 2B, Compound A 7.5 mg/kg PO, 0.5 h
[7] = Study 2B, Compound A 10 mg/kg PO, 0.5 h
[8] = Study 2C, Compound A 3 mg/kg PO, 0.5 h, alone
[9] = dosed in combination with Cenobamate vs alone
[10] = Study 2A, Lacosamide 6 mg/kg PO, 2 h
[11] = Study 2A, Lacosamide 8 mg/kg PO, 2 h
[12] = Study 2B, Lacosamide 10 mg/kg PO, 2 h
[13] = Study 2C, Lacosamide 10 mg/kg PO, 2 h, alone
[14] = Study 2D, Lacosamide 6 mg/kg PO, 2 h
[15] = Study 2D, Lacosamide 20 mg/kg PO, 2 h

## NC(=O)O[C@@H](Cn1ncnn1)c1ccccc1Cl [Cenobamate, reference compound]
CF-1 mouse; Study 4D, Cenobamate 3 mg/kg single oral dose
  Fraction with Behavioral Signs: 0/8
CF-1 mouse; Study 4D, Cenobamate 10 mg/kg single oral dose
  Fraction with Behavioral Signs: 0/8
CF-1 mouse; Study 4D, Cenobamate 30 mg/kg single oral dose
  Fraction with Behavioral Signs: 0/8
CF-1 mouse; Study 4E, Cenobamate 3 mg/kg single oral dose
  Fraction with Behavioral Signs: 0/8
CF-1 mouse; Study 4E, Cenobamate 5 mg/kg single oral dose
  Fraction with Behavioral Signs: 0/8
CF-1 mouse; Study 4E, Cenobamate 7.5 mg/kg single oral dose
  Fraction with Behavioral Signs: 0/8
CF-1 mouse; Study 4F, Cenobamate 5 mg/kg PO alone
  Fraction with Behavioral Signs: 0/8
[1]; Cenobamate 7.5 mg/kg PO, 2 h, alone
  fraction of animals seizing: 3/7
[1]; Cenobamate 10 mg/kg PO, 2 h, alone
  fraction of animals seizing: 1/8
[1]; Cenobamate 30 mg/kg PO, 2 h, alone
  fraction of animals seizing: 0/8
[1]; Cenobamate lower doses of 3 and 5 mg/kg PO, 2 h, alone
  fraction of animals seizing: 7/8
[1]; Study 4D, Cenobamate 3 mg/kg single oral dose, 2 h pre-treatment, vehicle 8/8
  Fraction Seizing: 8/8
[1]; Study 4D, Cenobamate 10 mg/kg single oral dose, 2 h pre-treatment, vehicle 8/8
  Fraction Seizing: 1/8
[1]; Study 4D, Cenobamate 30 mg/kg single oral dose, vehicle 8/8
  Fraction Seizing: 0/8
[1]; Study 4E, Cenobamate 3 mg/kg single oral dose, 2 h pre-treatment, vehicle 8/8
  Fraction Seizing: 6/7
[1]; Study 4E, Cenobamate 5 mg/kg single oral dose, 2 h pre-treatment, vehicle 8/8
  Fraction Seizing: 6/7
[1]; Study 4E, Cenobamate 7.5 mg/kg single oral dose, 2 h pre-treatment, vehicle 8/8
  Fraction Seizing: 3/8
[1]; Study 4F, Cenobamate 5 mg/kg PO, 2 h, alone
  fraction of animals seizing: 8/8
[1]; Study 4F, Cenobamate 5 mg/kg PO alone, 2 h pre-treatment, vehicle 8/8
  Fraction Seizing: 8/8

## Cc1cc(N2CCc3cc(F)ccc3C2)cc(C)c1NC(=O)CC(C)(C)C [Compound A, N-[4-(6-fluoro-3,4-dihydro-1H-isoquinolin-2-yl)-2,6-dimethylphenyl]-3,3-dimethylbutanamide]
CF-1 mouse; [2]
  Fraction with Behavioral Signs: 0/8
CF-1 mouse; [3]
  Fraction with Behavioral Signs: 0/8
CF-1 mouse; [4]
  Fraction with Behavioral Signs: 1/8
CF-1 mouse; Study 2A, Compound A 10 mg/kg group, 10 mg/kg
  plasma concentration of individual mouse showing behavioral signs (tremors, decreased activity, splayed hindlimbs): 390 nM
CF-1 mouse; [5]
  Fraction with Behavioral Signs: 0/8
CF-1 mouse; [6]
  Fraction with Behavioral Signs: 1/7
CF-1 mouse; Study 2B, Compound A 7.5 mg/kg group, 7.5 mg/kg
  plasma concentration of individual mouse showing behavioral signs (tremors, decreased activity, splayed hindlimbs): 750 nM
CF-1 mouse; [7]
  Fraction with Behavioral Signs: 2/9
CF-1 mouse; Study 2B, Compound A 10 mg/kg group, two mice, 10 mg/kg
  plasma concentration of individual mouse showing behavioral signs (tremors, decreased activity, splayed hindlimbs): 516 nM and 610 nM and 520 nM
CF-1 mouse; [8]
  Fraction with Behavioral Signs: 0/8
CF-1 mouse; Study 4A, Compound A 10 mg/kg group
  plasma concentration of individual mouse showing behavioral signs (tremors, decreased activity, splayed hindlimbs): 390 nM
CF-1 mouse; Study 4A, Compound A 1 mg/kg single oral dose
  Behavioral Signs (fraction): 0/8
CF-1 mouse; Study 4A, Compound A 5 mg/kg single oral dose
  Behavioral Signs (fraction): 0/8
CF-1 mouse; Study 4A, Compound A 10 mg/kg single oral dose
  Behavioral Signs (fraction): 1/8
CF-1 mouse; Study 4B, Compound A 7.5 mg/kg group
  plasma concentration of individual mouse showing behavioral signs (tremors, decreased activity, splayed hindlimbs): 750 nM
CF-1 mouse; Study 4B, Compound A 10 mg/kg group, two mice, 10 mg/kg
  plasma concentration of individual mouse showing behavioral signs (tremors, decreased activity, splayed hindlimbs): 610 nM and 520 nM
CF-1 mouse; Study 4B, Compound A 5 mg/kg single oral dose
  Fraction with Behavioral Signs: 0/8
CF-1 mouse; Study 4B, Compound A 7.5 mg/kg single oral dose
  Fraction with Behavioral Signs: 1/7
CF-1 mouse; Study 4B, Compound A 10 mg/kg single oral dose
  Fraction with Behavioral Signs: 2/9
CF-1 mouse; Study 4C, Compound A 3 mg/kg single oral dose
  Fraction with Behavioral Signs: 0/8
CF-1 mouse; Study 4F, Compound A 2 mg/kg PO alone
  Fraction with Behavioral Signs: 0/8
[1]; composite of Studies 4A, 4B, 4C, 4F, read-out: EC50 for plasma
  EC50: 296 nM
[1]; Mus musculus, po, 0.5 h, composite of Studies 2A, 2B, 2C, read-out: EC50 for brain tissue
  EC50: 471 nM
[1]; Mus musculus, po, 0.5 h, composite of Studies 2A, 2B, 2C, read-out: EC50 for plasma
  EC50: 300 nM
[1]; Mus musculus, po, 0.5 h, composite of Studies 4A, 4B, 4C, 4F, read-out: EC50 for brain tissue
  EC50: 470 nM
[1]; Mus musculus, po, 0.5 h, composite of Studies 4A, 4B, 4C, 4F, read-out: EC50 for plasma
  EC50: 300 nM
[1]; [2]
  Fraction Seizing: 8/8
[1]; [3]
  Fraction Seizing: 7/8
[1]; [4]
  Fraction Seizing: 3/8
[1]; [5]
  Fraction Seizing: 0/8
[1]; [6]
  Fraction Seizing: 0/7
[1]; [7]
  Fraction Seizing: 1/9
[1]; [8]
  Fraction Seizing: 2/8
[1]; Study 4A, Compound A 1 mg/kg PO, 0.5 h
  fraction of animals seizing: 8/8
[1]; Study 4A, Compound A 5 mg/kg PO, 0.5 h
  fraction of animals seizing: 7/8
[1]; Study 4A, Compound A 10 mg/kg PO, 0.5 h
  fraction of animals seizing: 3/8
[1]; Study 4A, Compound A 1 mg/kg single oral dose, 30 min pre-treatment, vehicle 8/8
  Fraction Seizing: 8/8
[1]; Study 4A, Compound A 5 mg/kg single oral dose, 30 min pre-treatment, vehicle 8/8
  Fraction Seizing: 7/8
[1]; Study 4A, Compound A 10 mg/kg single oral dose, 30 min pre-treatment, vehicle 8/8
  Fraction Seizing: 3/8
[1]; Study 4B, Compound A 5 mg/kg PO, 0.5 h
  fraction of animals seizing: 0/8
[1]; Study 4B, Compound A 10 mg/kg PO, 0.5 h
  fraction of animals seizing: 1/9
[1]; Study 4B, Compound A 5 mg/kg single oral dose, vehicle 8/8
  Fraction Seizing: 0/8
[1]; Study 4B, Compound A 7.5 mg/kg single oral dose, vehicle 8/8
  Fraction Seizing: 0/7
[1]; Study 4B, Compound A 10 mg/kg single oral dose, vehicle 8/8
  Fraction Seizing: 1/9
[1]; Study 4C, Compound A 3 mg/kg PO, 0.5 h
  fraction of animals seizing: 2/8
[1]; Study 4C, Compound A 3 mg/kg single oral dose, vehicle 8/8
  Fraction Seizing: 2/8
[1]; Study 4F, Compound A 2 mg/kg PO, 0.5 h, alone
  fraction of animals seizing: 5/8
[1]; Study 4F, Compound A 2 mg/kg PO alone, 0.5 h pre-treatment, vehicle 8/8
  Fraction Seizing: 5/8
[1]; [9]
  increase in the potency of Compound A, brain tissue: 14.2 fold
  increase in the potency of Compound A, plasma: 33.3 fold

## COC[C@@H](NC(C)=O)C(=O)NCc1ccccc1 [Lacosamide, reference compound]
CF-1 mouse; [10]
  Fraction with Behavioral Signs: 0/8
CF-1 mouse; [11]
  Fraction with Behavioral Signs: 0/8
CF-1 mouse; [12]
  Fraction with Behavioral Signs: 0/8
CF-1 mouse; [13]
  Fraction with Behavioral Signs: 0/8
CF-1 mouse; [14]
  Fraction with Behavioral Signs: 0/8
CF-1 mouse; [15]
  Fraction with Behavioral Signs: 0/8
[1]; [10]
  Fraction Seizing: 8/8
[1]; [11]
  Fraction Seizing: 8/8
[1]; [12]
  Fraction Seizing: 8/8
[1]; [13]
  Fraction Seizing: 6/8
[1]; [14]
  Fraction Seizing: 8/8
[1]; [15]
  Fraction Seizing: 3/8
